Tests used:
C. albicans strain 3153A = assay: Fungal challenge and assessment of protection (disseminated candidiasis), peptide vaccines; type: in vivo, BALB/c mice; details: for protection against disseminated candidiasis (survival) / viable fungal units (CFUs) in kidneys: peptide-pulsed DC vaccine; for protection against disseminated candidiasis (survival): vs DPBS or DCs+CFA controls; for viable fungal units (CFUs) in kidneys: vs controls, detection limit 50 CFU per kidney pair; for survival rate: general peptides, experiment terminated 80 days post challenge
Method: C. albicans 3153A and SC5314, C. krusei (ATCC 6258), C. glabrata (ATCC 2001) and Saccharomyces cerevisiae (ATCC 9463) were obtained from the American Type Culture Collection (ATCC; Manassas, Va.) and were grown as stationary-phase yeast cells in glucose-yeast extract-peptone broth at 37° C., washed and suspended to the appropriate cell concentration (5×10^6/ml) in Dulbecco's PBS (DPBS; Sigma-Aldrich, St. Louis, Mo.), and used to infect mice intravenously (i.v.) as previously described (25, 29). C. albicans strain 3153A was also used for serum antibody absorption, immunofluorescence staining and flow cytometric analysis. Unless otherwise indicated, C. albicans strain 3153A was used to challenge the mice in the examples below.
Two weeks after the second boost, immune and control mice were infected intravenously (i.v.) with a lethal dose of live C. albicans yeast cells (5×10^5 in 0.1 ml of DPBS) prepared as described above and as before (53). Passively immunized mice (below) also received the same challenge dose. Protection was evaluated by monitoring animal survival for 80-100 days. The mice were monitored 2-3 times daily for the development of a moribund state, defined as being listless, disinterested in food or water, and nonreactive to finger probing. At the time that a mouse was deemed moribund, it was sacrificed and their kidneys (for some experiments, brains) were homogenized in DPBS and plated onto a nutrient agar to determine colony forming units (CFUs). After 80-100 days, the experiments were terminated and all the survivors at that time were sacrificed and their kidneys were assessed for CFU as before. The lowest limit of detection for the CFU assay was 50 CFU per kidney pair.
Two weeks after the second boost, immune and control mice were infected i.v. with a lethal dose of live C. albicans yeast cells (5×10^5 in 0.1 ml of DPBS). Passively immunized mice also received the same challenge dose. Protection was evaluated by monitoring animal survival for up to 120 days and by quantifying the number of CFU (mean±SE) per kidney pairs. Median survival times (MST) were statistically evaluated by Kaplan-Meier (GraphPad Prism, version 4). In all analyses, there were five mice per group (n=5), and a two-tailed t test was used.

C. albicans = assay: Immunofluorescence and flow cytometric analysis of binding to fungal cell surface; type: cell-based; details: live fungal cells reacted with immune serum of peptide-immunized mice
Method: Distribution of the Fba peptide epitope on yeast cells was determined by indirect immunofluorescence. […] The yeast cells were suspended in the antibody preparation and incubated while shaking by rotation at room temperature (RT, 22-24° C.) for 1-2 h. After incubation, the yeast cells were washed with DPBS three times, suspended in 200 μl of fluorescein-labeled goat anti-mouse IgM (u-chain specific; Sigma) (stock solution, 1 mg/ml; working solution, 20 μg/ml of DPBS) and incubated at RT as described above for 0.5 h. The yeast cells were washed with DPBS three times and suspended in 200 μl of DPBS. The cells were observed by confocal microscopy (LSM 510, Zeiss). The distribution of the Fba peptide epitope on the yeast cell surface was compared to that obtained with yeast cells fluorescently stained for detection of the MAb B6.1 epitope. […] For flow cytometric analysis, following the last incubation, cells were washed as described above and suspended in the 500 μl DPBS buffer. Flow cytometry was performed using a BD Biosciences FACSVantage SE equipped with an argon laser excitation at 488 nm. 10,000 cells in each sample were analyzed (CellQuest Pro software).
Distribution of the β-(Man)3 and Fba peptide epitopes on yeast cells was determined by use of immune serum for flow cytometric analysis and indirect immunofluorescence. One hundred microliters of immune serum (1:100 dilution in 1% BSA/DPBS) was added to a pellet of C. albicans yeast cells (5×10^6) that was prewashed with DPBS buffer three times. The yeast cells were suspended in the immune serum [from β-(Man)3-Fba-TT immunized mice] preparation and incubated while shaking by rotation at room temperature (RT, 22-24° C.) for 1-2 h. After incubation, the yeast cells were washed with DPBS three times, suspended in 200 μl of fluorescein-labeled goat anti-mouse IgM (μ-chain specific; Sigma) (stock solution, 1 mg/ml; working solution, 20 μg/ml of DPBS) and incubated at RT described above for 0.5 h. The yeast cells were washed with DPBS three times and suspended in 500 μl of DPBS. Flow cytometry was performed using a BD Biosciences FACSVantage SE equipped with an argon laser excitation at 488 nm. 10,000 cells in each sample were analyzed (CellQuest Pro software).
For immunofluorescence assays, the fungal cells were immunostained and washed as described above and suspended in the 200 μl DPBS buffer. The cells were observed by confocal microscopy (LSM 510, Zeiss). The distribution of the β-(Man)3 and Fba peptide epitopes on the yeast cell surface was compared to that obtained with yeast cells fluorescently stained for detection of the MAb B6.1 epitope.

synthetic peptides = assay: ELISA antibody responses to peptide-pulsed DC vaccines; type: in vivo, BALB/c mice; details: general fungal peptides, peptide-pulsed DC + CFA
Method: The murine dendritic cells (DCs) were pulsed in vitro with peptide candidate vaccine antigens as previously described (53). Briefly, DCs in culture were pulsed with the peptide antigen (1 μM) on day 6. On day 7, PGE2 (10^-7M) was added along with LPS (2 μg/ml, Sigma-Aldrich) for 24 h. On day 9, antigen-pulsed DCs were washed extensively and 5×10^5 in 200 μl DPBS were given intraperitoneally (i.p.) as the priming dose to mice. The mice were boosted i.p. at day 14 with fresh antigen-pulsed DCs and boosted a second time at day 28 with antigen (10 μg) emulsified in complete Freund adjuvant (CFA) given subcutaneously (s.c.).
Sera were ELISA analyzed for antibody titers. For DC-based immunization, control groups consisted of mice given DCs alone at the time of priming and first booster followed by CFA alone at the time of the second booster, or DPBS alone for all three injections. For Fba peptides administered with alum or MPL, control groups were mice given adjuvant alone or DPBS buffer. […] Synthetic Fba-MAP (GenScript) was dissolved at 5 μg/ml in PBS (pH 7.4) and used to coat 96-well ELISA plates for testing duplicate serial 2-fold dilutions of samples of each immune serum and control sera. Color development for each well was achieved by use of secondary antibody (goat anti-mouse polyvalent Ig-HRP) and substrate (O-phenylenediamine and H2O2) and OD determined at 492 nm.
FIGS. 1A-1C show the antibody responses in BALB/c mice against peptide-pulsed DC vaccines. Sera from mice immunized with the six synthetic peptide carriers presented on dendritic cells (DCs) for the priming and first booster immunizations and emulsified in complete Freund adjuvant (CFA) for the second booster were tested by ELISA for antibody responses against the peptides. Control groups consisted of mice given the same regimen for priming and boosters except that the peptides were omitted (DCs+CFA) or DPBS only was used at each injection time. […] The bars of each panel indicate means of CFUs per kidney pair for each group. The lowest limit of detection for the CFU assay is 50 CFU per kidney pair.
Sera were ELISA analyzed for antibody titers. Control groups consisted of mice given DCs alone at the time of priming and first booster followed by DPBS at the time of the second booster, DPBS for the priming and first booster and CFA alone at the time of the second booster, DPBS alone for all three injections, or DCs alone for priming and first booster followed by CFA alone at the time of the second booster. Briefly, synthetic peptides were dissolved at 10 μg/ml in PBS (pH 7.4). […] Color development for each well was achieved by secondary antibody (goat anti-mouse polyvalent immunoglobulin-HRP, Sigma) and substrate (O-phenylenediamine and H2O2) and Optical Density (OD) determined at 492 nm.

[1] = test system: anti-Fba antibodies in immune sera; assay: ELISA inhibition assay with modified Fba peptides as inhibitors; type: binding, mice; details: compared with original Fba inhibition curve
Method: The specificity of MAb E2-9 for Fba peptide was determined by an inhibition ELISA as described previously (52, 53). Briefly, Fba-MAP was dissolved in DPBS (5 μg/ml), and the solution was used to coat 96-well ELISA plates (100 μl, overnight at 4° C.). The wells were washed five times with PBST (PBS containing Tween 20, 0.05% [vol/vol] and blocked with 1% bovine serum albumin-PBST. MAb E2-9 produced as described above, was serially diluted up to 10,000 for ELISA measurements. Unless otherwise stated, the serum was diluted 1:100 dilution in DPBS to determine the content of antibody by ELISA. MAb E2-9 was mixed with Fba peptide (inhibitor) (dissolved in PBST at a concentration between 0.1 μM and 1 mM), and the resulting solution of each concentration was added to the Fba-MAP coated microtiter wells (solid phase) in triplicate and incubated at 21 to 23° C. for 2 h. Unless otherwise stated, the concentration of test antigens used to coat the wells was about 5-10 μg/ml. The wells were washed three times with PBST, and goat anti-mouse heavy chain specific for IgM was HRP-conjugated (diluted 1:10,000 in PBST) (Sigma) and 100 μl was added to the corresponding wells and incubated for 1 h at 21 to 23° C. The wells were washed five times with PBST, followed by addition of 100 μl of substrate solution (25 ml of 0.05 M phosphate-citrate buffer [pH 5.0], 200 μl of an aqueous solution of O-phenylenediamine 50 mg/ml [Sigma], and 10 μl of 30% H2O2). Color was allowed to develop for 10 min, stopped by addition of […] of 2 M H2SO4, and read at 492 nm (microtiter plate reader, model 450; Bio-Rad, Richmond, Calif.). The percent inhibition was calculated relative to wells containing antibody without inhibitor.
The specificity of anti-Fba antibodies in immune sera was tested for the modified Fba peptides as determined by ELISA inhibition assay. Peptide 1, original Fba, which was used as an inhibitor, was included as a positive control. The inhibition curve of FIG. 17 serves to compare the curves with the other modified peptides 2-11. FIGS. 18A, 18B, 18C, and 18D show the results of ELISA inhibition assays for peptide 2, peptide 3, peptide 4 and peptide 5, respectively. Each methylated peptide was used as an inhibitor in the designated assay. […] The reaction is dose-dependent for each group, indicating anti-Fba antibodies in immune sera were specific for the modified peptides. […] The binding of peptide 11, which has two extra cysteines may indicate that the binding site of Fba with antibody is located at the carboxyl part of the peptide.

| Sequence | protection against disseminated candidiasis (survival) (C. albicans strain 3153A) | viable fungal units (CFUs) in kidneys (C. albicans strain 3153A) | effect on peptide-antibody binding (ELISA inhibition, peptide as inhibitor) [1] | also measured |
| --- | --- | --- | --- | --- |
| QGETEEALIQKRSY [Hwp1] | a high degree of protection | low or even non-detectable | – | – |
| DSRGNPTVEVDFTT [Eno1] | neither of two other peptides Gap1, or Eno1 induced protection | slightly less fungal burden | – | – |
| VPLDGKTITNNQRI [Pgk1] | some protection | low or non-detectable CFUs | – | – |
| SSSTVVAAL [Fba4] | – | – | – | survival rate (C. albicans strain 3153A; DC immunization): 60%; binding of antibody in the immune serum to the peptides expressed on C. albicans cell surface (flow cytometric analysis) (C. albicans): expressed on the fungal surface and are accessible to antibodies in immune sera; antibody responses (ELISA, plates coated with the peptide) (synthetic peptides): able to induce antibody responses |
| YGKDCVKCDLFDYAQE (cysteine added at positions 5 and 8) (cysteines added at positions 5 and 8) [Pep 11] | – | – | bound well to antibody | – |
| YGKDVKDLFDYAQE (methylated at position 2) [Pep3] | – | – | little effect on peptide-antibody binding | – |
| FAIPAINVTSSSTV [Fba2] | – | – | – | protection (survival) vs DC+CFA control (C. albicans strain 3153A; general peptides experiment, DC immunization): failed to induce good protection; antibody responses (ELISA, plates coated with the peptide) (synthetic peptides): good and specific antibody responses |
| FAIPAINVTSSSTVVAALE [Fba3] | – | – | – | survival rate (C. albicans strain 3153A; DC immunization): 80%; binding of antibody in the immune serum to the peptides expressed on C. albicans cell surface (flow cytometric analysis) (C. albicans): expressed on the fungal surface and are accessible to antibodies in immune sera; antibody responses (ELISA, plates coated with the peptide) (synthetic peptides): able to induce antibody responses |
| NRSPSTGEQKSSGI [Gap1] | neither of two other peptides Gap1, or Eno1 induced protection | slightly less fungal burden | – | – |
| YGKDVKDLFDYAQE (methylated at position 5) [Pep5] | – | – | little effect on peptide-antibody binding | – |
| YGKDVKDLFDYAQE (methylated at position 3) [Pep4] | – | – | little effect on peptide-antibody binding | – |
| PRIGGQRELKKITE [Met6] | a high degree of protection | low or even non-detectable | – | – |
| YGKDVKDLFDYAQE (methylated at position 1) [Pep2] | – | – | little effect on peptide-antibody binding | – |
| YDQVLDLSLLFNAIP [Met6-2] | – | – | – | survival rate (C. albicans strain 3153A; DC immunization): 80%; binding of antibody in the immune serum to the peptides expressed on C. albicans cell surface (flow cytometric analysis) (C. albicans): expressed on the fungal surface and are accessible to antibodies in immune sera; antibody responses (ELISA, plates coated with the peptide) (synthetic peptides): able to induce antibody responses |
| YGKDVKDLFDYAQE (methylated at positions 1 and 8) [Pep10] | – | – | bound well to antibody | – |

Reference: patent US9416173B2, “Peptide and conjugate vaccines for fungal infections” (priority 2011, dated 2016)
